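The compound was tested at five concentrations on cells cultured in 96-well plates, with a 48-hour exposure period. Abbreviation: GI50, concentration required for 50% inhibition of growth. TGI denotes the concentration required for complete inhibition of growth.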
Tests used:
Test in all cases: DTP human tumour cell line panel, 48 h
786-0 renal = tested on: 786-0 renal
A498 renal = tested on: A498 renal
A549 NSCLC = tested on: A549 NSCLC
ACHN renal = tested on: ACHN renal
BT-549 breast = tested on: BT-549 breast
CAKI-1 renal = tested on: CAKI-1 renal
CCRF-CEM leukemia = tested on: CCRF-CEM leukemia
COLO 205 colon = tested on: COLO 205 colon
DU-145 prostate = tested on: DU-145 prostate
EKVX NSCLC = tested on: EKVX NSCLC
HCC-2998 colon = tested on: HCC-2998 colon
HCT-116 colon = tested on: HCT-116 colon
HCT-15 colon = tested on: HCT-15 colon
HL-60(TB) leukemia = tested on: HL-60(TB) leukemia
HOP-62 NSCLC = tested on: HOP-62 NSCLC
HOP-92 NSCLC = tested on: HOP-92 NSCLC
HS 578T breast = tested on: HS 578T breast
HT29 colon = tested on: HT29 colon
IGROV1 ovarian = tested on: IGROV1 ovarian
K-562 leukemia = tested on: K-562 leukemia
KM12 colon = tested on: KM12 colon
LOX IMVI melanoma = tested on: LOX IMVI melanoma
M14 melanoma = tested on: M14 melanoma
MALME-3M melanoma = tested on: MALME-3M melanoma
MCF7 breast = tested on: MCF7 breast
MDA-MB-231 breast = tested on: MDA-MB-231 breast
MDA-MB-435 = tested on: MDA-MB-435
MDA-MB-468 breast = tested on: MDA-MB-468 breast
MOLT-4 leukemia = tested on: MOLT-4 leukemia
NCI-H226 lung = tested on: NCI-H226 lung
NCI-H23 lung = tested on: NCI-H23 lung
NCI-H460 lung = tested on: NCI-H460 lung
NCI-H522 lung = tested on: NCI-H522 lung
OVCAR-3 ovarian = tested on: OVCAR-3 ovarian
OVCAR-4 ovarian = tested on: OVCAR-4 ovarian
OVCAR-5 ovarian = tested on: OVCAR-5 ovarian
OVCAR-8 ovarian = tested on: OVCAR-8 ovarian
PC-3 prostate = tested on: PC-3 prostate
RPMI-8226 leukemia = tested on: RPMI-8226 leukemia
RXF 393 renal = tested on: RXF 393 renal
SF-268 CNS = tested on: SF-268 CNS
SF-295 CNS = tested on: SF-295 CNS
SF-539 CNS = tested on: SF-539 CNS
SK-MEL-2 melanoma = tested on: SK-MEL-2 melanoma
SK-MEL-28 melanoma = tested on: SK-MEL-28 melanoma
SK-MEL-5 melanoma = tested on: SK-MEL-5 melanoma
SK-OV-3 ovarian = tested on: SK-OV-3 ovarian
SN12C renal = tested on: SN12C renal
SNB-19 CNS = tested on: SNB-19 CNS
SR leukemia = tested on: SR leukemia
SW-620 colon = tested on: SW-620 colon
T-47D breast = tested on: T-47D breast
TK-10 renal = tested on: TK-10 renal
U251 CNS = tested on: U251 CNS
UACC-257 melanoma = tested on: UACC-257 melanoma
UACC-62 melanoma = tested on: UACC-62 melanoma
UO-31 renal = tested on: UO-31 renal

## CC(C)(C)c1cc(-c2cc(-c3ccccc3)[nH]c(=O)c2C#N)cc(C(C)(C)C)c1
786-0 renal
  GI50: 5.14 µM
  TGI: 18.2 µM
A498 renal
  GI50: 10.1 µM
  TGI: 26.1 µM
A549 NSCLC
  GI50: 3.71 µM
  TGI: 15.9 µM
ACHN renal
  GI50: 2.7 µM
  TGI: 7.91 µM
BT-549 breast
  GI50: 4.12 µM
  TGI: 19 µM
CAKI-1 renal
  GI50: 2.81 µM
  TGI: 11 µM
CCRF-CEM leukemia
  GI50: 36.8 µM
  TGI: > 100 µM
COLO 205 colon
  GI50: 37.6 µM
  TGI: > 100 µM
DU-145 prostate
  GI50: 11.3 µM
  TGI: 31.6 µM
EKVX NSCLC
  GI50: 6.58 µM
  TGI: 22.6 µM
HCC-2998 colon
  GI50: 38.8 µM
  TGI: > 100 µM
HCT-116 colon
  GI50: 21.4 µM
  TGI: 61.4 µM
HCT-15 colon
  GI50: 17.8 µM
  TGI: > 100 µM
HL-60(TB) leukemia
  GI50: 49.2 µM
  TGI: > 100 µM
HOP-62 NSCLC
  GI50: 3.25 µM
  TGI: 11.9 µM
HOP-92 NSCLC
  GI50: 2.83 µM
  TGI: 8.64 µM
HS 578T breast
  GI50: 2.63 µM
  TGI: 8.85 µM
HT29 colon
  GI50: 23.4 µM
  TGI: 62 µM
IGROV1 ovarian
  GI50: 3.9 µM
  TGI: 17.6 µM
K-562 leukemia
  GI50: 17.8 µM
  TGI: > 100 µM
KM12 colon
  GI50: > 100 µM
  TGI: > 100 µM
LOX IMVI melanoma
  GI50: 2.02 µM
  TGI: 4.53 µM
M14 melanoma
  GI50: 12 µM
  TGI: 38.3 µM
MALME-3M melanoma
  GI50: 4.53 µM
  TGI: 17 µM
MCF7 breast
  GI50: 12.9 µM
  TGI: 39.1 µM
MDA-MB-231 breast
  GI50: 2.72 µM
  TGI: 8.82 µM
MDA-MB-435
  GI50: 14.6 µM
  TGI: 43.1 µM
MDA-MB-468 breast
  GI50: 10.3 µM
  TGI: 29.7 µM
MOLT-4 leukemia
  GI50: 14.2 µM
  TGI: > 100 µM
NCI-H226 lung
  GI50: 2.69 µM
  TGI: 10.3 µM
NCI-H23 lung
  GI50: 6.22 µM
  TGI: 22.4 µM
NCI-H460 lung
  GI50: 3.56 µM
  TGI: 13.1 µM
NCI-H522 lung
  GI50: 15.1 µM
  TGI: 73.3 µM
OVCAR-3 ovarian
  GI50: 12.4 µM
  TGI: 41.5 µM
OVCAR-4 ovarian
  GI50: 2.85 µM
  TGI: 10.1 µM
OVCAR-5 ovarian
  GI50: 15.2 µM
  TGI: 93.2 µM
OVCAR-8 ovarian
  GI50: 3.5 µM
  TGI: 13.9 µM
PC-3 prostate
  GI50: 11.5 µM
  TGI: 36.3 µM
RPMI-8226 leukemia
  GI50: 37.7 µM
  TGI: > 100 µM
RXF 393 renal
  GI50: 2.4 µM
  TGI: 7.03 µM
SF-268 CNS
  GI50: 7.73 µM
  TGI: 46.3 µM
SF-295 CNS
  GI50: 2.05 µM
  TGI: 4.81 µM
SF-539 CNS
  GI50: 5.11 µM
  TGI: 17.7 µM
SK-MEL-2 melanoma
  GI50: 12 µM
  TGI: 26.5 µM
SK-MEL-28 melanoma
  GI50: 12.8 µM
  TGI: 30.5 µM
SK-MEL-5 melanoma
  GI50: 14.3 µM
  TGI: 34.1 µM
SK-OV-3 ovarian
  GI50: 5.8 µM
  TGI: 22 µM
SN12C renal
  GI50: 4.09 µM
  TGI: 25.7 µM
SNB-19 CNS
  GI50: 3.03 µM
  TGI: 10.8 µM
SR leukemia
  GI50: 19.4 µM
  TGI: > 100 µM
SW-620 colon
  GI50: 18.6 µM
  TGI: > 100 µM
T-47D breast
  GI50: 6.71 µM
  TGI: 45.8 µM
TK-10 renal
  GI50: 4.97 µM
  TGI: 19.9 µM
U251 CNS
  GI50: 3.05 µM
  TGI: 10.8 µM
UACC-257 melanoma
  GI50: 13.5 µM
  TGI: 36.2 µM
UACC-62 melanoma
  GI50: 7.98 µM
  TGI: 22.7 µM
UO-31 renal
  GI50: 4.11 µM
  TGI: 19.1 µM

## O=C1CCC(N2C(=O)c3cccc(NCCOCCOCCOCCC(=O)NCCCC(=O)NC(c4ccc5c(c4)OCO5)c4cc(Cl)c5cccnc5c4O)c3C2=O)C(=O)C1 (stereo not drawn)
786-0 renal
  GI50: 29.6 µM
  TGI: > 99 µM
A498 renal
  GI50: > 99 µM
  TGI: > 99 µM
A549 NSCLC
  GI50: 41.5 µM
  TGI: > 99 µM
ACHN renal
  GI50: 52.5 µM
  TGI: > 99 µM
BT-549 breast
  GI50: 8.58 µM
  TGI: 42.3 µM
CAKI-1 renal
  GI50: 28.3 µM
  TGI: > 99 µM
CCRF-CEM leukemia
  GI50: 3.34 µM
  TGI: > 99 µM
COLO 205 colon
  GI50: 5.04 µM
  TGI: > 99 µM
DU-145 prostate
  GI50: 37.5 µM
  TGI: > 99 µM
EKVX NSCLC
  GI50: 17.2 µM
  TGI: > 99 µM
HCC-2998 colon
  GI50: 6.03 µM
  TGI: 30.8 µM
HCT-116 colon
  GI50: 22.2 µM
  TGI: > 99 µM
HCT-15 colon
  GI50: 37.4 µM
  TGI: > 99 µM
HL-60(TB) leukemia
  GI50: 2.41 µM
  TGI: 23.1 µM
HOP-62 NSCLC
  GI50: 7.19 µM
  TGI: > 99 µM
HOP-92 NSCLC
  GI50: 4.29 µM
  TGI: 52.3 µM
HS 578T breast
  GI50: 8.43 µM
  TGI: > 99 µM
HT29 colon
  GI50: 26.4 µM
  TGI: > 99 µM
IGROV1 ovarian
  GI50: 3.77 µM
  TGI: > 99 µM
K-562 leukemia
  GI50: 5.3 µM
  TGI: > 99 µM
KM12 colon
  GI50: 4.5 µM
  TGI: > 99 µM
LOX IMVI melanoma
  GI50: 4.29 µM
  TGI: 22.2 µM
M14 melanoma
  GI50: 14 µM
  TGI: > 99 µM
MALME-3M melanoma
  GI50: 11.8 µM
  TGI: 90.8 µM
MCF7 breast
  GI50: 3.69 µM
  TGI: > 99 µM
MDA-MB-231 breast
  GI50: 4.32 µM
  TGI: 29.5 µM
MDA-MB-435
  GI50: 5.8 µM
  TGI: > 99 µM
MDA-MB-468 breast
  GI50: 2.56 µM
  TGI: 7.77 µM
MOLT-4 leukemia
  GI50: 4.8 µM
  TGI: > 99 µM
NCI-H226 lung
  GI50: 14.5 µM
  TGI: 72.2 µM
NCI-H23 lung
  GI50: 12.7 µM
  TGI: > 99 µM
NCI-H460 lung
  GI50: 4.81 µM
  TGI: 42.9 µM
NCI-H522 lung
  GI50: 4.39 µM
  TGI: 41.5 µM
OVCAR-3 ovarian
  GI50: 3.33 µM
  TGI: > 99 µM
OVCAR-4 ovarian
  GI50: 14.4 µM
  TGI: 84.3 µM
OVCAR-5 ovarian
  GI50: 19.5 µM
  TGI: > 99 µM
OVCAR-8 ovarian
  GI50: 11.9 µM
  TGI: 75.1 µM
PC-3 prostate
  GI50: 7.83 µM
  TGI: > 99 µM
RPMI-8226 leukemia
  GI50: 7.12 µM
  TGI: > 99 µM
RXF 393 renal
  GI50: 8.56 µM
  TGI: 33.3 µM
SF-268 CNS
  GI50: 4.38 µM
  TGI: > 99 µM
SF-295 CNS
  GI50: 25.4 µM
  TGI: > 99 µM
SF-539 CNS
  GI50: 4.21 µM
  TGI: 26.6 µM
SK-MEL-2 melanoma
  GI50: 4.89 µM
  TGI: 34.6 µM
SK-MEL-28 melanoma
  GI50: 5.95 µM
  TGI: 61 µM
SK-MEL-5 melanoma
  GI50: 14 µM
  TGI: 43.8 µM
SK-OV-3 ovarian
  GI50: 14.6 µM
  TGI: > 99 µM
SN12C renal
  GI50: 5.42 µM
  TGI: > 99 µM
SNB-19 CNS
  GI50: 6.32 µM
  TGI: > 99 µM
SR leukemia
  GI50: 5.26 µM
  TGI: > 99 µM
SW-620 colon
  GI50: 12.6 µM
  TGI: > 99 µM
T-47D breast
  GI50: 5.06 µM
  TGI: > 99 µM
TK-10 renal
  GI50: 62.1 µM
  TGI: > 99 µM
U251 CNS
  GI50: 6.8 µM
  TGI: > 99 µM
UACC-257 melanoma
  GI50: 8.95 µM
  TGI: 85.7 µM
UACC-62 melanoma
  GI50: 3.76 µM
  TGI: 22.7 µM
UO-31 renal
  GI50: 33.6 µM
  TGI: > 99 µM

Reference: PubChem BioAssay (NCI)
